Experimental data reported in US20080118591A1, “Bactericidal Formulations” (priority 2004, published 2008).
Where two headings read alike, the source gives them in different places.

Key:
gram-negative bacteria = assay: Rapid bactericidal effect of perfume ingredients (example 1, Mueller-Hinton broth, most probable number method); assay type: cell-based; conditions: for rapid (30 s) bactericidal activity on gram-negative bacteria (class): 30 s contact time, 0.1% or 0.2% (w/v) in Mueller-Hinton broth
Experimental: A sufficiently rapid bactericidal activity of a perfume ingredient against gram-negative bacteria according to the invention is determined as follows. The perfume ingredient must have a reduction factor of bacterial viability of at least 20-fold when it is tested in a concentration of 0.2% in Mueller Hinton Broth with a contact time of 30 seconds as described below. The perfume ingredient is dissolved in dimethylsulfoxide (DMSO) in a concentration of 4% (w/v). An aliquot (10 μl) of the solution is added to individual wells of microtiter plates.
200 μl of Mueller-Hinton broth containing a bacterial inoculum of 2.5×10^6 cfu (colony forming units) is added. After 30 s contact time, 20 μl of the test solution is removed and added to 180 μl of a neutralising solution (containing 3 g lecithin, 30 g Tween® 80, 5 g sodium thiosulfate, 1 g histidine, 30 g saponin, 8.5 g sodium chloride, 1 g tryptone and 1000 ml water). After 1 min incubation, the sample is serially diluted 1:1 in Micotiter-plates containing 100 μl Mueller-Hinton Broth per well, and then incubated for 24 h at 37° C. The maximal dilution showing bacterial growth is recorded to determine the number of surviving bacteria (so-called most probable number method, which is a well-known microbiological method), and results are compared to control samples without added perfumery chemicals. Reduction in bacterial viability is thus calculated by dividing numbers of bacteria in control samples by the number surviving in the treated samples. […].
Test organisms Escherichia coli (ATCC 10536), Salmonella typhimurium (ATCC 13311) and Pseudomonas aeruginosa (ATCC 15442) are used. For Pseudomonas aeruginosa the test solution contains additionally 0.1% EDTA.
A large number of commercially-available materials including a collection of 900 perfumery chemicals is tested. The materials are dissolved in dimethylsulfoxide (DMSO) in a concentration of 4% (w/v). An aliquot (5 μl or 10 μl) of each solution is added to individual wells of microtiter plates. 200 μl of Mueller-Hinton broth containing a bacterial inoculum of 2.5×10^6 cfu (colony forming units) is added. After 30 s and 60 s contact time, 20 μl of the test solution is removed and added to 180 μl of a neutralising solution (containing 3 g lecithin, 30 g Tween® 80, 5 g sodium thiosulfate, 1 g histidine, 30 g saponin, 8.5 g sodium chloride, 1 g tryptone and 1000 ml water). After 1 min incubation, the samples are serially diluted 1:1 in Micotiter-plates containing 100 μl Mueller-Hinton Broth per well, and then incubated for 24 h at 37° C. The maximal dilution showing bacterial growth is recorded to determine the number of surviving bacteria (so-called most probable number method, which is a well-known microbiological method), and results are compared to control samples without added perfumery chemicals. Reduction in bacterial viability is thus calculated by dividing numbers of bacteria in control samples by the number surviving in the treated samples.

[1] = Pyrene 1:3 ratio (I373/I384) for micelle formation; assay type: physicochemical
Experimental: To 100 μl of each dilution, 5 μl of a pyrene solution (0.4 mM in ethanol) is added. After equilibration, the fluorescence of the solution with an excitation at 335 nm is determined.
To 100 μl of each dilution, 5 μl of a pyrene solution (0.4 mM in ethanol) is added. After equilibration, the fluorescence of the solution with an excitation at 335 nm is determined on an LS-50 Perkin Elmer fluorescence spectrometer.

Pseudomonas aeruginosa = assay: Rapid bactericidal activity of liquid wash formulations; assay type: cell-based
Experimental: The above formulations are supplemented with 0.9% (w/v) of the perfume composition A of example 2. A control of each formulation is left un-perfumed. The rapid bactericidal activity of these formulations is then tested as follows: • The products are diluted 1:1 in hard water as defined in the European standard EN 1276. This mimics conditions of use on wet hands or wet surfaces in commonly used water. • 500 μl of the product is mixed with 25 μl of a bacterial inoculum containing 2×10^8 cfu/ml (colony forming units). • The mixture is incubated for 30 seconds at 37° C. • 20 μl of the mixture is removed and added to 180 μl neutralising solution (containing 3 g lecithin, 30 g Tween® 80, 5 g sodium thiosulfate, 1 g histidine, 30 g saponin, 8.5 g sodium chloride, 1 g tryptone and 1000 ml water). • The mixture with neutraliser is incubated for 1 min • Serial dilutions of the mixture with neutralising solution are made, and aliquots of these are added to Petri-dishes and embedded in tryptic soy agar containing 0.5% Tween® 80 to inactivate any residual antibacterial compounds. • Bacterial numbers are counted after 24 h incubation at 37° C. and compared to control samples. • Reduction in bacterial viability is determined as described in example 1
The resulting formulations are tested in a 1:1 dilution for their rapid bactericidal effects after 30 seconds for Pseudomonas aeruginosa.
Formulation IVg is supplemented as indicated in the table below with various different chelating agents instead of EDTA and is tested as described in example 5a. The resulting products are tested with 30 s contact time at a 1:1 dilution for bactericidal effects on P. aeruginosa.

[2] = chelating agent added to formulation instead of EDTA, 1:1, 30 s

CC(C)=CCCC(C)CCOC=O (stereo not drawn) [citronellyl-formiate]
antibacterial effect in formulations according to the present invention (in words) (gram-negative bacteria): do not provide a sufficient antibacterial effect | rapid (30 s) bactericidal activity on gram-negative bacteria (class) (gram-negative bacteria): without activity

CC(C)=CCC/C(C)=C\COC=O [neryl-formiate]
antibacterial effect in formulations according to the present invention (in words) (gram-negative bacteria): do not provide a sufficient antibacterial effect | rapid (30 s) bactericidal activity on gram-negative bacteria (class) (gram-negative bacteria): without activity

Diisopropyl-sulfosuccinate
ratio (I373)/(I384) (pyrene 1:3 ratio) ([1]; CONC 0.01% in water): 1.21 | ratio (I373)/(I384) (pyrene 1:3 ratio) ([1]; CONC 0.02% in water): 1.21 | ratio (I373)/(I384) (pyrene 1:3 ratio) ([1]; CONC 0.04% in water): 1.20 | ratio (I373)/(I384) (pyrene 1:3 ratio) ([1]; CONC 0.08% in water): 1.36 | ratio (I373)/(I384) (pyrene 1:3 ratio) ([1]; CONC 0.16% in water): 1.99 | ratio (I373)/(I384) (pyrene 1:3 ratio) ([1]; CONC 0.31% in water): 1.65 | ratio (I373)/(I384) (pyrene 1:3 ratio) ([1]; CONC 0.63% in water): 1.48 | ratio (I373)/(I384) (pyrene 1:3 ratio) ([1]; CONC 1.25% in water): 1.39

C=CC(C)(CCC=C(C)C)OC=O (stereo not drawn) [linalyl-formiate]
antibacterial effect in formulations according to the present invention (in words) (gram-negative bacteria): do not provide a sufficient antibacterial effect | rapid (30 s) bactericidal activity on gram-negative bacteria (class) (gram-negative bacteria): without activity

O=P(O)(O)CN(CP(=O)(O)O)CP(=O)(O)O [Aminotri (methylene-phosponic acid)]
effect of the chelating agent on rapid activity of the formulation against Pseudomonas aeruginosa (in words) (Pseudomonas aeruginosa; [2]): not able to provide this improved activity

O=C(O)CN(CC(=O)O)CC(=O)O [NTA, nitrilotriacetic acid]
effect of the chelating agent on rapid activity of the formulation against Pseudomonas aeruginosa (in words) (Pseudomonas aeruginosa; [2]): not able to provide this improved activity

O=C(O)CN(CC(=O)O)[C@@H]1CCCC[C@H]1N(CC(=O)O)CC(=O)O (relative stereo) [CDTA, trans 1,2-diaminocyclohexane-N,N,N′N′-tetraacetic acid]
effect of the chelating agent on rapid activity of the formulation against Pseudomonas aeruginosa (in words) (Pseudomonas aeruginosa): further improves the effectiveness

C=CC(C)(CCC=C(C)C)OC(=O)CC (stereo not drawn) [linalyl-propionate]
antibacterial effect in formulations according to the present invention (in words) (gram-negative bacteria): do not provide a sufficient antibacterial effect | rapid (30 s) bactericidal activity on gram-negative bacteria (class) (gram-negative bacteria): without activity

Sodium xylene sulfonate
ratio (I373)/(I384) (pyrene 1:3 ratio) ([1]; CONC 0.01% in water): 1.37 | ratio (I373)/(I384) (pyrene 1:3 ratio) ([1]; CONC 0.02% in water): 1.46 | ratio (I373)/(I384) (pyrene 1:3 ratio) ([1]; CONC 0.04% in water): 2.84 | ratio (I373)/(I384) (pyrene 1:3 ratio) ([1]; CONC 0.08% in water): 1.62 | ratio (I373)/(I384) (pyrene 1:3 ratio) ([1]; CONC 0.16% in water): 1.49 | ratio (I373)/(I384) (pyrene 1:3 ratio) ([1]; CONC 0.31% in water): 1.43 | ratio (I373)/(I384) (pyrene 1:3 ratio) ([1]; CONC 0.63% in water): 1.41 | ratio (I373)/(I384) (pyrene 1:3 ratio) ([1]; CONC 1.25% in water): 1.04

O=C(O)CN(CCN(CC(=O)O)CC(=O)O)CCN(CC(=O)O)CC(=O)O [DTPA, di-ethylen-triamine-penta-acetate]
effect of the chelating agent on rapid activity of the formulation against Pseudomonas aeruginosa (in words) (Pseudomonas aeruginosa; [2]): not able to provide this improved activity

CCC(=O)OC/C=C(\C)CCC=C(C)C [Geranyl-propionate]
antibacterial effect in formulations according to the present invention (in words) (gram-negative bacteria): do not provide a sufficient antibacterial effect | rapid (30 s) bactericidal activity on gram-negative bacteria (class) (gram-negative bacteria): without activity

Cocoamidopropylbetaine
ratio (I373)/(I384) (pyrene 1:3 ratio) ([1]; CONC 0.01% in water): 1.19 | ratio (I373)/(I384) (pyrene 1:3 ratio) ([1]; CONC 0.02% in water): 1.02 | ratio (I373)/(I384) (pyrene 1:3 ratio) ([1]; CONC 0.04% in water): 0.87 | ratio (I373)/(I384) (pyrene 1:3 ratio) ([1]; CONC 0.08% in water): 0.80 | ratio (I373)/(I384) (pyrene 1:3 ratio) ([1]; CONC 0.16% in water): 0.80 | ratio (I373)/(I384) (pyrene 1:3 ratio) ([1]; CONC 0.31% in water): 0.78 | ratio (I373)/(I384) (pyrene 1:3 ratio) ([1]; CONC 0.63% in water): 0.79 | ratio (I373)/(I384) (pyrene 1:3 ratio) ([1]; CONC 1.25% in water): 0.78

CC(C)=CCC/C(C)=C/COC=O [Geranyl-formiate]
antibacterial effect in formulations according to the present invention (in words) (gram-negative bacteria): do not provide a sufficient antibacterial effect | rapid (30 s) bactericidal activity on gram-negative bacteria (class) (gram-negative bacteria): without activity

CCC(=O)OCCC(C)CCC=C(C)C (stereo not drawn) [citronellyl-propionate]
antibacterial effect in formulations according to the present invention (in words) (gram-negative bacteria): do not provide a sufficient antibacterial effect | rapid (30 s) bactericidal activity on gram-negative bacteria (class) (gram-negative bacteria): without activity

CCC(=O)OC/C=C(/C)CCC=C(C)C [neryl-propionate]
antibacterial effect in formulations according to the present invention (in words) (gram-negative bacteria): do not provide a sufficient antibacterial effect | rapid (30 s) bactericidal activity on gram-negative bacteria (class) (gram-negative bacteria): without activity

CCCCCCCCCCCCOS(=O)(=O)[O-].[Na+] [Sodium dodecylsulfate]
ratio (I373)/(I384) (pyrene 1:3 ratio) ([1]; CONC 0.01% in water): 1.11 | ratio (I373)/(I384) (pyrene 1:3 ratio) ([1]; CONC 0.02% in water): 1.12 | ratio (I373)/(I384) (pyrene 1:3 ratio) ([1]; CONC 0.04% in water): 1.08 | ratio (I373)/(I384) (pyrene 1:3 ratio) ([1]; CONC 0.08% in water): 0.92 | ratio (I373)/(I384) (pyrene 1:3 ratio) ([1]; CONC 0.16% in water): 0.78 | ratio (I373)/(I384) (pyrene 1:3 ratio) ([1]; CONC 0.31% in water): 0.79 | ratio (I373)/(I384) (pyrene 1:3 ratio) ([1]; CONC 0.63% in water): 0.75 | ratio (I373)/(I384) (pyrene 1:3 ratio) ([1]; CONC 1.25% in water): 0.74

O=C(O)CC(NC(CC(=O)O)C(=O)O)C(=O)O (stereo not drawn) [IDS, iminodisuccinic acid]
effect of the chelating agent on rapid activity of the formulation against Pseudomonas aeruginosa (in words) (Pseudomonas aeruginosa; [2]): not able to provide this improved activity

O=C(O)C[C@H](NCCN[C@@H](CC(=O)O)C(=O)O)C(=O)O [EDDS, ethylendiaminedisuccinic acid]
effect of the chelating agent on rapid activity of the formulation against Pseudomonas aeruginosa (in words) (Pseudomonas aeruginosa; [2]): not able to provide this improved activity

CC(=O)OCCC(C)CCC=C(C)C (stereo not drawn) [citronellyl-actetate]
antibacterial effect in formulations according to the present invention (in words) (gram-negative bacteria): do not provide a sufficient antibacterial effect | rapid (30 s) bactericidal activity on gram-negative bacteria (class) (gram-negative bacteria): without activity

CC(O)(P(=O)(O)O)P(=O)(O)O [1-hydroxyethylidene-1,1-phosphonic acid]
effect of the chelating agent on rapid activity of the formulation against Pseudomonas aeruginosa (in words) (Pseudomonas aeruginosa): not able to provide this improved activity
